According to PMC9465641 (Frontiers in Pharmacology, 2022):
Counter-ions that a name gives are not always drawn. Positions of bridges follow the written chain, without caps; N, C: chain ends. Non-standard residues stand in square brackets, D forms with d. Residues, ends and D or L forms follow the SMILES beside them. *: point of attachment. X1 = CC[C@H](C)CCCCC(=O)*; Dab = NCC[C@H](N)C(=O)O

How the values were obtained:
[1] = test system: carbapenem-resistant gram-negative bacteria; assay: Clinical outcome, microbiological outcome and nephrotoxicity in patients; format: in vivo, human
Method: The primary endpoint was the clinical outcome, and the secondary endpoint was the microbiological outcome. Clinical outcomes were defined as valid, if signs and symptoms of infection disappeared or improved on Day 7 after the initiation of colistin therapy; or invalid, defined as any of the following criteria: death related to infection, hemodynamic instability, deteriorated Sequential Organ Failure Assessment (SOFA) score, constant fever >38.5°C, repeat isolation of bacterial phenotypically identical to the index isolate. […] Colistin-induced nephrotoxicity was defined using RIFLE (risk, injury, failure, loss of kidney function, and end-stage renal disease) criteria during treatment ([Bellomo et al., 2004]). […]

[2] = Individual drug exposure at steady state (PK/PD analysis); format: in vivo, human
[3] = test system: PA+AB (P. aeruginosa + A. baumannii); assay: MIC for colistin of causative pathogen; format: cell-based
[4] = set-up: method as in Couet et al., 2011; details: colistin converted from CMS; ref Couet et al., 2011; cited from earlier work
[5] = used for fAUC/MIC; ref Nation et al., 2016; cited from earlier work
Method: The AUC for each dosing regimen was calculated at 24 or 72 h after therapy to evaluate the probability of target attainment (PTA) of fAUC/MIC ≥20 ([Dudhani et al., 2010a]; [Cheah et al., 2015]), where f is the unbound fraction of colistin defined as 0.49 ([Nation et al., 2016]). Dosing regimens were considered appropriate if PTA ≥90% was achieved. In addition, the average steady-state plasma colistin concentration (Css,avg) was used to evaluate the probabilities of efficacy and toxicity, and the desired Css, avg were designed to achieve target attainment rates of >80% for Css,avg ≥ 2 and <30% ...

[6] = patient 1, Pulmonary, PA+AB, MIC 0.5 mg/L, 1.0 MU q12h, with MER+LIN
[7] = patient 2, Pulmonary, Bloodstream, Urinary tract, KP, MIC 0.5 mg/L, 1.0 MU q12h, with MER
[8] = patient 3, Pulmonary, AB, MIC 0.5 mg/L, 0.75 MU q12h + inhaled 0.25MU q12h, with MER
[9] = patient 6, Pulmonary, Bloodstream, KP, MIC 0.5 mg/L, 1.0 MU q12h + inhaled 0.25MU q12h, with PIP/TAZ
[10] = patient 7, Pulmonary, KP, MIC 0.5 mg/L, 0.75 MU q12h + inhaled 0.25MU q12h, with MER, PIP/TAZ
[11] = patient 8, Pulmonary, AB, MIC 2 mg/L, 0.75 MU q12h + inhaled 0.25MU q12h, with MER
[12] = patient 9, Pulmonary, AB, MIC 0.5 mg/L, 0.75 MU q12h + inhaled 0.25MU q12h, with MER
[13] = patient 10, Pulmonary, AB, MIC 0.5 mg/L, 0.75 MU q12h + inhaled 0.25MU q12h, with MER+LIN
[14] = patient 11, Bloodstream, AB, MIC 0.5 mg/L, 1.0 MU q12h, with MER+TEI
[15] = patient 12, Bloodstream, Urinary tract, KP, MIC 0.5 mg/L, 0.5 MU q8h, with CEF/AVI
[16] = patient 13, Pulmonary, Bloodstream, KP, MIC 0.5 mg/L, 0.5 MU q8h, with CEF/AVI
[17] = patient 14, Pulmonary, Bloodstream, Abdomen, KP, MIC 0.5 mg/L, 0.5 MU q8h, with CEF/AVI
[18] = patient 15, Abdomen, PA+AB, MIC 1, 2 mg/L, 0.75 MU q8h + inhaled 0.25MU q12h, with MER+CEF/SUL
[19] = patient 16, Pulmonary, AB, MIC 0.5 mg/L, 0.5 MU q8h + inhaled 0.25MU q12h, with MER+CEF/SUL
[20] = patient 18, Pulmonary, AB, MIC 0.5 mg/L, 0.75 MU q12h + inhaled 0.25MU q12h, with MER
[21] = patient 19, Pulmonary, AB, MIC 0.5 mg/L, 0.5 MU q8h, with MER+TEI
[22] = patient 1, 1.0 MU q12h, CrCL 63.93 ml/min
[23] = patient 2, 1.0 MU q12h, CrCL 138.05 ml/min
[24] = patient 3, 0.75 MU q12h + inhaled 0.25MU q12h, CrCL 193.84 ml/min
[25] = patient 6, 1.0 MU q12h + inhaled 0.25MU q12h, CrCL 23.79 ml/min
[26] = patient 7, 0.75 MU q12h + inhaled 0.25MU q12h, CrCL 10.2 ml/min
[27] = patient 8, 0.75 MU q12h + inhaled 0.25MU q12h, CrCL 62.44 ml/min
[28] = patient 9, 0.75 MU q12h + inhaled 0.25MU q12h, CrCL 70.98 ml/min
[29] = patient 10, 0.75 MU q12h + inhaled 0.25MU q12h, CrCL 29.3 ml/min
[30] = patient 11, 1.0 MU q12h, CrCL 26.81 ml/min
[31] = patient 12, 0.5 MU q8h, CrCL 9.7 ml/min
[32] = patient 13, 0.5 MU q8h, CrCL 52.49 ml/min
[33] = patient 14, 0.5 MU q8h, CrCL 93.28 ml/min
[34] = patient 15, 0.75 MU q8h + inhaled 0.25MU q12h, CrCL 41.41 ml/min
[35] = patient 16, 0.5 MU q8h + inhaled 0.25MU q12h, CrCL 45.07 ml/min
[36] = patient 18, 0.75 MU q12h + inhaled 0.25MU q12h, CrCL 101.48 ml/min
[37] = patient 19, 0.5 MU q8h, CrCL 91.55 ml/min

CC[C@H](C)CCCCC(=O)N[C@@H](CCN)C(=O)N[C@H](C(=O)N[C@@H](CCN)C(=O)N[C@H]1CCNC(=O)[C@H]([C@@H](C)O)NC(=O)[C@H](CCN)NC(=O)[C@H](CCN)NC(=O)[C@H](CC(C)C)NC(=O)[C@@H](CC(C)C)NC(=O)[C@H](CCN)NC1=O)[C@@H](C)O [colistin sulfate] (X1-[Dab]T[Dab][Dab][Dab][dL]L[Dab][Dab]T; lactam 4-C)
successful clinical outcomes ([1]; 12 of 16 cases, definitive therapy, Day 7): 75%
microbiological eradication ([1]; 13 of 16 subjects, causative pathogen MIC 0.5–2 mg/L): 81.25%
colistin-induced nephrotoxicity (RIFLE criteria) ([1]; during the treatment): None of the patients experienced colistin-induced nephrotoxicity
Clinical outcomes [1, 6]: Valid
Microbiological outcomes [1, 6]: clearance
Clinical outcomes [1, 7]: Invalid
Microbiological outcomes [1, 7]: clearance
Clinical outcomes [1, 8]: Valid
Microbiological outcomes [1, 8]: clearance
Clinical outcomes [1, 9]: Valid
Microbiological outcomes [1, 9]: clearance
Clinical outcomes [1, 10]: Valid
Microbiological outcomes [1, 10]: clearance
Clinical outcomes [1, 11]: Invalid
Microbiological outcomes [1, 11]: uncleared
Clinical outcomes [1, 12]: Valid
Microbiological outcomes [1, 12]: clearance
Clinical outcomes [1, 13]: Valid
Microbiological outcomes [1, 13]: clearance
Clinical outcomes [1, 14]: Valid
Microbiological outcomes [1, 14]: clearance
Clinical outcomes [1, 15]: Valid
Microbiological outcomes [1, 15]: clearance
Clinical outcomes [1, 16]: Valid
Microbiological outcomes [1, 16]: clearance
Clinical outcomes [1, 17]: Valid
Microbiological outcomes [1, 17]: clearance
Clinical outcomes [1, 18]: Invalid
Microbiological outcomes [1, 18]: uncleared
Clinical outcomes [1, 19]: Valid
Microbiological outcomes [1, 19]: clearance
Clinical outcomes [1, 20]: Valid
Microbiological outcomes [1, 20]: clearance
Clinical outcomes [1, 21]: Invalid
Microbiological outcomes [1, 21]: uncleared
Css, avg [2, 22]: 1.99 mg/L
Css, max [2, 22]: 3.98 mg/L
Css, avg [2, 23]: 1.17 mg/L
Css, max [2, 23]: 2.48 mg/L
Css, avg [2, 24]: 0.57 mg/L
Css, max [2, 24]: 1.71 mg/L
Css, min [2, 24]: 0.13 mg/L
Css, avg [2, 25]: 2.43 mg/L
Css, max [2, 25]: 3.01 mg/L
Css, min [2, 25]: 1.95 mg/L
Css, avg [2, 26]: 1.59 mg/L
Css, max [2, 26]: 2.49 mg/L
Css, min [2, 26]: 0.89 mg/L
Css, avg [2, 27]: 1.15 mg/L
Css, max [2, 27]: 2.10 mg/L
Css, avg [2, 28]: 2.04 mg/L
Css, max [2, 28]: 3.02 mg/L
Css, min [2, 28]: 1.40 mg/L
Css, avg [2, 29]: 1.51 mg/L
Css, max [2, 29]: 2.48 mg/L
Css, min [2, 29]: 0.87 mg/L
Css, avg [2, 30]: 4.40 mg/L
Css, max [2, 30]: 5.84 mg/L
Css, avg [2, 31]: 2.07 mg/L
Css, max [2, 31]: 2.67 mg/L
Css, avg [2, 32]: 1.49 mg/L
Css, max [2, 32]: 2.09 mg/L
Css, avg [2, 33]: 0.74 mg/L
Css, max [2, 33]: 1.34 mg/L
Css, avg [2, 34]: 2.52 mg/L
Css, max [2, 34]: 3.62 mg/L
Css, avg [2, 35]: 1.58 mg/L
Css, max [2, 35]: 2.24 mg/L
Css, avg [2, 36]: 0.86 mg/L
Css, max [2, 36]: 1.89 mg/L
Css, min [2, 36]: 0.28 mg/L
Css, avg [2, 37]: 1.33 mg/L
Css, max [2, 37]: 1.92 mg/L
Css, min [2, 37]: 0.83 mg/L
MIC ([3]; isolates of patient 15, first printed value): 1 mg/L
MIC ([3]; isolates of patient 15, second printed value): 2 mg/L
CL [4]: 2.92 L/h
unbound fraction (f) [5]: 0.49
